Data: patent publication US9586959B2, “Substituted tricyclic heterocycles as histamine 4 receptor inhibitors” (C&C RESEARCH LABORATORIES, priority 2011, dated 2017)
Converted amounts (≈) assume the structure as drawn.

What was measured:
[1] = target: human histamine 4 receptor (hH4R) (Homo sapiens (Human), UniProt Q9H3N8); test: Binding affinity of human histamine 4 receptor (hH4R), [3H] labeled histamine displacement; conditions: hH4R-overexpressed cell membrane, [3H] histamine
Protocol: 20 μL of the prepared compound solution was transferred to each well of a 96-well plate, and then 20 μL of 100 μM histamine diluted with analysis buffer solution and 1% DMSO were transferred to each well to calculate non-specific binding and total binding degree. 25 μg of human histamine 4 receptor-overexpressed cell membrane (PerkinElmer) was diluted into 160 μL of analysis buffer solution and that was transferred to each well. [^3H] labeled histamine (PerkinElmer) was diluted into 1 μM concentration, 20 μL was allocated in each well, and then it was kept in a 27° C. incubator for 30 minutes. After the reaction, 200 μL of the mixture was transferred to a glass fiber plate in which 0.5% polyethylene amine was presoaked, and then non-binding [^3H] labeled histamine was removed in vacuum. After 4 times washing with 200 μL of washing buffer solution (50 mM tris-HCl, pH 7.4), the plate was dried in a 37° C. oven for 18 hours. 100 μL of betascint cocktail solution was added to each well, and after 1 hour CPM (count per minute) value of [^3H] labeled histamine was measured by using Wallac beta-counter TriLux.

[2] = target: human histamine 3 receptor (hH3R) (Homo sapiens (Human), UniProt Q9Y5N1); test: Binding affinity of human histamine 3 receptor (hH3R), [3H] labeled N-α-methylhistamine displacement; conditions: hH3R-overexpressed cell membrane, [3H] N-α-methylhistamine
Protocol: 10 μL of the prepared compound solution was allocated in each well of a 96-well plate, and then 10 μL of 200 μM (R)(−)-α-methylhistamine (RaMH) diluted with analysis buffer and 1% of DMSO were transferred to each well to calculate non-specific binding and total binding degree. 15 μg of human histamine 3 receptor-overexpressed cell membrane (PerkinElmer) was diluted with 180 μL of analysis buffer solution (50 mM tris-HCl pH 7.4, 5 mM MgCl2), and that was transferred to each well. [^3H] labeled Na-methylhistamine (PerkinElmer) was diluted into […], 10 μL of that was added to each well, and then it was kept in a 27° C. incubator for 30 minutes. After the reaction, 200 μL of the mixture was transferred to a glass fiber plate in which 0.5% polyethylene amine was presoaked, and then non-binding [^3H] labeled Na-methylhistamine was removed in vacuum. After 5 times washing with 200 μL of washing buffer solution (50 mM tris-HCl, pH 7.4), the plate was dried in a 37° C. oven for 18 hours. 100 μL of betascint cocktail solution was added to each well, and after 1 hour CPM of [^3H] labeled N-α-methylhistamine was measured by using Wallac beta-counter TriLux. The binding affinity (IC50) of the human histamine 3 receptor for the present invention was analyzed by an Excel program, and the results of analysis are shown in Table 2.

[3] = Metabolic stability in mouse microsome; conditions: mouse microsome 1 mg/mL, 5 μM compound, 1 mM NADPH
[4] = Metabolic stability in human microsome; conditions: human microsome 1 mg/mL, 5 μM compound, 1 mM NADPH
[5] = Solubility in artificial gastrointestinal tract solution; type: physicochemical; conditions: artificial gastrointestinal tract solution, thermodynamic from solid; for solubility at 1 h: fassgf or other biorelevant, first solution pH 1.2, 2 mg/mL sample, 37° C. 1 hour; for solubility at 2 h: fassif, second solution pH 6.5, 2 mg/mL sample, 37° C. 2 hours
Protocol: 2.0 g of sodium chloride was added in 7.0 mL of 37% of hydrochloric acid and water to make the total volume of 1 L. The pH was adjusted to exactly 1.2 with 1N sodium hydroxide or 1N hydrochloric acid. A small amount (20 mL) of this solution was taken and added in 25 μL of triton X-100 to make the total volume of 25 mL.
0.348 g sodium hydroxide, 3.438 g NaH2PO4, 6.186 g sodium chloride and water were added to make the total volume of 1 L. The pH was adjusted to exactly 6.5 with 1N sodium hydroxide or 1N hydrochloric acid. A small amount (20 mL) of this solution was taken and 41.25 mg of sodium taurocholate hydrate and 25 μL of 750 mM lecithin dissolved in ethanol was added to make the total volume of 25 mL.
The heated test sample solutions were filtered to remove undissolved compounds therein. Finally, 100 μL of the completely compound-dissolved solution was sampled and 100 μL of CH3CN was added thereto to make the test sample solution. For each analysis of the test sample solution, the solubility was measured by using liquid chromatography.

Chain of human histamine 3 receptor (hH3R) (Q9Y5N1 whole entry): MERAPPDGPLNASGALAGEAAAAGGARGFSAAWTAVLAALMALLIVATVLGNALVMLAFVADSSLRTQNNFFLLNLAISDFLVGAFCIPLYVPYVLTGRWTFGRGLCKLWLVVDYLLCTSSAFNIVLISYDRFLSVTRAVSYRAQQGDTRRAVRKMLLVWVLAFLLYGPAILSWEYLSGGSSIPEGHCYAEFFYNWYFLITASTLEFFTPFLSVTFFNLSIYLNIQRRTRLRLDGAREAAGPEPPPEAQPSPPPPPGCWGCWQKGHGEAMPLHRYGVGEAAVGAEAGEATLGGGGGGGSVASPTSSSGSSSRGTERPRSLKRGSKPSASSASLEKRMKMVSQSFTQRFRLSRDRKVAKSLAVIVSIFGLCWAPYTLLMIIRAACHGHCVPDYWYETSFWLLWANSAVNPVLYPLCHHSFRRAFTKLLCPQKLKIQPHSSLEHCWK

IC50 [1] [µM] | IC50 [2] [µM] | Metabolic stability (CLh. int), Mouse [3] [µL/min/mg] | Metabolic stability (CLh. int), Human [4] [µL/min/mg] | SMILES | IC50 ([1]; 2,2,2-trifluoroacetate) [µM] | solubility at 1 h [5] [mg/mL] | solubility at 2 h [5] [mg/mL]
0.238 | > 100 | 3070 | 2710 | CN1CCN(c2nc3ncc(C#N)cc3n3cnnc23)CC1 [Compound 13, 4-(4-Methylpiperazin-1-yl)pyrido[2,3-e][1,2,4]triazolo[4,3-a]pyrazin-8-carbonitrile] | – | – | –
0.177 | > 100 | 17130 | 5880 | CN1CCN(c2nc3nc(Cl)c(Cl)cc3n3cnnc23)CC1 [Compound 17, 7,8-Dichloro-4-(4-methylpiperazin-1-yl)pyrido[2,3-e][1,2,4]triazolo[4,3-a]pyrazine] | – | – | –
0.27 | – | 7130 | 4870 | CN1CCN(c2nc3nc(C#N)c(Cl)cc3n3cnnc23)CC1 [Compound 21, 8-Chloro-4-(4-methylpiperazin-1-yl)pyrido[2,3-e][1,2,4]triazolo[4,3-a]pyrazin-7-carbonitrile] | – | – | –
0.22 | > 100 | 6740 | 2450 | N#Cc1cnc2nc(N3CCNCC3)c3nncn3c2c1 [Compound 26, 4-(piperazin-1-yl)pyrido[2,3-e][1,2,4]triazolo[4,3-a]pyrazin-8-carbonitrile] | – | – | –
– | > 100 | 7270 | 1240 | CNC1CN(c2nc3nc(Cl)c(Cl)cc3n3cnnc23)C1 [Compound 27, 1-(7,8-Dichloropyrido[2,3-e][1,2,4]triazolo[4,3-a]pyrazin-4-yl)-N-methylazetidin-3-amine] | – | – | –
0.51 | > 100 | 7980 | 4170 | Clc1cc2c(nc1Cl)nc(N1CCNCC1)c1nncn12 [Compound 62, 7,8-Dichloro-4-(piperazin-1-yl)pyrido[2,3-e][1,2,4]triazolo[4,3-a]pyrazine] | – | – | –

Continued, compound first:

SMILES | IC50 [1] [µM] | IC50 [2] [µM] | Metabolic stability (CLh. int), Mouse [3] [µL/min/mg] | Metabolic stability (CLh. int), Human [4] [µL/min/mg] | IC50 ([1]; 2,2,2-trifluoroacetate) [µM] | solubility at 1 h [5] [mg/mL] | solubility at 2 h [5] [mg/mL]
CN1CCN(c2nc3ncc(Cl)cc3c3nc(C4CC4)nn23)CC1 [Compound 38, 9-Chloro-2-cyclopropyl-5-(4-methylpiperazin-1-yl)pyrido[3,2-e][1,2,4]triazolo[1,5-c]pyrimidine] | – | > 100 | 14900 | 7180 | – | – | –
Clc1cnc2nc(N3CCNCC3)n3nc(C4CC4)nc3c2c1 [Compound 39, 9-Chloro-2-cyclopropyl-5-(piperazin-1-yl)pyrido[3,2-e][1,2,4]triazolo[1,5-c]pyrimidine] | 0.13 | > 100 | 5090 | 2840 | – | – | –
Cn1cc2c(n1)c(N1CCNCC1)nc1ncc(Cl)cc12 [Compound 45, 8-Chloro-2-methyl-4-(piperazin-1-yl)-2H-pyrazolo[3,4-c][1,8]naphthylidine] | – | > 100 | 12990 | 3260 | – | – | –
CN1CCN(c2nc3ncc(C(F)(F)F)cc3n3cnnc23)CC1 [Compound 53, 4-(4-Methylpiperazin-1-yl)-8-(trifluoromethyl)pyrido[2,3-e][1,2,4]triazolo[4,3-a]pyrazine] | 0.28 | – | 3380 | 2340 | – | – | –
C#Cc1cnc2nc(N3CC(NC)C3)c3nncn3c2c1 [Compound 54, 1-(8-Ethynylpyrido[2,3-e][1,2,4]triazolo[4,3-a]pyrazin-4-yl)-N-methylazetidin-3-amine] | 0.2 | > 100 | 680 | 1160 | – | – | –
CNC1CN(c2nc3ncc(OC)cc3n3cnnc23)C1 [Compound 58, 1-(8-Methoxypyrido[2,3-e][1,2,4]triazolo[4,3-a]pyrazin-4-yl)-N-methylazetidin-3-amine] | 0.21 | > 100 | 12740 | 2800 | – | – | –
CNC1CN(c2nc3ncc(OC(F)F)cc3n3cnnc23)C1 [Compound 59, 1-(8-(Difluoromethoxy)pyrido[2,3-e][1,2,4]triazolo[4,3-a]pyrazin-4-yl)-N-methylazetidin-3-amine] | 0.89 | > 100 | 1230 | 1320 | – | – | –
CNC1CN(c2nc3ncc(Br)c(C)c3n3cnnc23)C1 [Compound 65, 1-(8-Bromo-9-methylpyrido[2,3-e][1,2,4]triazolo[4,3-a]pyrazin-4-yl)-N-methylazetidin-3-amine] | 0.73 | > 100 | 6490 | 3210 | – | – | –
Clc1cnc2nc(N3C[C@@H]4C[C@H]3CN4)c3nncn3c2c1 [Compound 77, 4-((1S,4S)-2,5-diazabicyclo[2.2.1]heptan-2-yl)-8-chloropyrido[2,3-e][1,2,4]triazolo[4,3-a]pyrazine] | 0.49 | > 100 | 320 | 1330 | – | – | –
CN1C[C@@H]2C[C@H]1CN2c1nc2ncc(Cl)cc2n2cnnc12 [Compound 78, 8-Chloro-4-((1S,4S)-5-methyl-2,5-diazabicyclo[2.2.1]heptan-2-yl)pyrido[2,3-e][1,2,4]triazolo[4,3-a]pyrazine] | 0.43 | > 100 | 1460 | 2360 | – | – | –
CNC1CN(c2nc3ncc(Br)cc3n3ccnc23)C1 [Compound 89, 1-(8-Bromoimidazo[1,2-a]pyrido[2,3-e]pyrazin-4-yl)-N-methylazetidin-3-amine] | 0.36 | > 100 | 10710 | 3190 | – | – | –
CN(O)C1CN(c2nc3ncc(Br)cc3n3cnnc23)C1 [Compound 102, N-(1-(8-bromopyrido[2,3-e][1,2,4]triazolo[4,3-a]pyrazin-4-yl)azetidin-3-yl)-N-methylhydroxylamine] | – | > 100 | 6780 | 1990 | – | – | –
CNC1CN(c2nc3ncc(Br)cc3n3cnnc23)C1.O=C(O)C(F)(F)F [Compound 104, 1-(8-bromopyrido[2,3-e][1,2,4]triazolo[4,3-a]pyrazin-4-yl)-N-methylazetidin-3-amine 2,2,2-trifluoroacetate] | – | > 100 | – | – | 0.03 | 1.51 | 1.56
CNC1CN(c2nc3ccc(Cl)nc3n3cnnc23)C1 [Compound 116, 1-(2-chloropyrido[3,2-e][1,2,4]triazolo[4,3-a]pyrazin-6-yl)-N-methylazetidin-3-amine] | 0.24 | > 100 | – | – | – | 1.94 (≈ 6.7 mM) | 0.96 (≈ 3.31 mM)
